The values that follow come from patent US8946209B2, “Compositions and methods for treating and preventing urolithiasis and conditions associated therewith” (OptMed, Inc., priority 2009, dated 2015).

The subject of data set [1] is human ureteral smooth muscle. Nature of the data set: Relaxant effect of diazepam on EFS-induced contraction of human ureteral muscle rings (Example 3). Format: cell-based. On the procedure:
(§1) Ureteral muscle rings obtained from women undergoing nephrectomy or ureteral muscle strips harvested from adult male Wistar rats (n=8 samples of each) were mounted in 5 mL organ baths containing Krebs-Henseleit solution. The organ baths were kept at 37±1° C. and continuously aerated with 95% O2-5% CO2. After 60 minutes of equilibration, smooth muscle samples were exposed to 80 or 30 mM KCl (human and rat, respectively) to assess their viability. After washout and 30 additional minutes of equilibration, electrical field stimulation (EFS) was started. […] Time-matched controls were obtained exposing tissues to a solution of drug vehicle without diazepam (DMSO in distilled water). At the end of the experiment, the maximal relaxant capacities of each tissue were determined by exposure to 10 μM forskolin.

The subject of data set [2] is rat ureteral smooth muscle. Nature of the data set: Relaxant effect of diazepam on EFS-induced contraction of rat ureteral muscle strips (Example 3). Format: cell-based, Wistar rats. As for the experimental part: as §1

In general, Emax refers to the greatest response seen or fitted, relative to the assay's reference.

Regarding `CN1C(=O)CN=C(c2ccccc2)c2cc(Cl)ccc21` [diazepam, 7-chloro-1,3-dihydro-1-methyl-5-phenyl-2H-1,4-benzodiazepin-2-one], the Emax in data set [1] (Homo sapiens, read-out: maximal relaxant effect (Emax), of the basal response to EFS) came out at 98.4 ± 0.2%; in data set [2] (read-out: maximal relaxant effect (Emax), of the basal response to EFS) it was 67.4 ± 5%. Moreover, the IC50 in data set [1] (Homo sapiens, read-out: pIC50 for inhibition of EFS-induced contraction (converted)) was 4.47 µM; in data set [2] (read-out: pIC50 for inhibition of EFS-induced contraction (converted)), 1.12 µM. Also, the “restoration of baseline EFS-induced contractility after washout” value in data set [1] (human ureter, following total inhibition of tissue contraction by diazepam) is given as “restored after 3 washouts”.
